Where two headings read alike, the source gives them in different places.

For experiment [1], the target named is TLR1/TLR2 (Mus musculus, UniProt Q9EPQ1+Q9QUN7). Briefly: TNF-α release from thioglycolate-elicited mouse peritoneal macrophages (ELISA). The following applies: for Emax: 4 h, read-out: Efficacy (magnitude) of response versus diprovocim-1 (100%), mouse macrophages; for EC50: read-out: EC50 (nM) (mouse): EC50 TNF-α release from mouse macrophages.
Method: Thioglycolate-elicited macrophages were recovered 4 days after i.p. injection of 2 mL BBL thioglycolate medium, brewer modified (4%; BD Biosciences) by peritoneal lavage with 5 mL phosphate buffered saline (PBS). […] Cells were seeded onto 96-well plates at 1×10^3 cells per well and treated with systematically varied concentrations of the candidate compounds (dissolved in DMSO, and final assay DMSO concentrations (0.5%) were kept constant in all experiments) for 4 h. Ultra-pure LPS (dissolved in H2O, Enzo Life Sciences) was assessed alongside the compounds as a positive control and DMSO treated controls. […] Mouse TNF-α in the supernatants was measured by ELISA kits according to the manufacturer's instructions (eBioscience). EC50's were calculated by Graphpad Prism. All data is mean of duplicates and SD is within ±10% of mean. Mouse cells were from wild type C57BL/6J mice.
Experiment [2] concerns the target TLR1/TLR2 (Homo sapiens, UniProt O60603+Q15399). Briefly: TNF-α release from PMA-differentiated human THP-1 cells (ELISA).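 On all read-outs here: cells exposed to graded compound concentrations for 4 h, TNF-α quantified in supernatant, LPS as positive and DMSO as negative control, values are duplicate means.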 To be noted: for Emax: THP-1, 4 h, read-out: Efficacy (magnitude) of response versus diprovocim-1 (100%), THP-1; for EC50: read-out: EC50 (nM) (THP-1): EC50 TNF-α release from human THP-1 cells.

TLR1/TLR2 (Mus musculus, UniProt Q9EPQ1+Q9QUN7), sequence (Q9EPQ1 26-795): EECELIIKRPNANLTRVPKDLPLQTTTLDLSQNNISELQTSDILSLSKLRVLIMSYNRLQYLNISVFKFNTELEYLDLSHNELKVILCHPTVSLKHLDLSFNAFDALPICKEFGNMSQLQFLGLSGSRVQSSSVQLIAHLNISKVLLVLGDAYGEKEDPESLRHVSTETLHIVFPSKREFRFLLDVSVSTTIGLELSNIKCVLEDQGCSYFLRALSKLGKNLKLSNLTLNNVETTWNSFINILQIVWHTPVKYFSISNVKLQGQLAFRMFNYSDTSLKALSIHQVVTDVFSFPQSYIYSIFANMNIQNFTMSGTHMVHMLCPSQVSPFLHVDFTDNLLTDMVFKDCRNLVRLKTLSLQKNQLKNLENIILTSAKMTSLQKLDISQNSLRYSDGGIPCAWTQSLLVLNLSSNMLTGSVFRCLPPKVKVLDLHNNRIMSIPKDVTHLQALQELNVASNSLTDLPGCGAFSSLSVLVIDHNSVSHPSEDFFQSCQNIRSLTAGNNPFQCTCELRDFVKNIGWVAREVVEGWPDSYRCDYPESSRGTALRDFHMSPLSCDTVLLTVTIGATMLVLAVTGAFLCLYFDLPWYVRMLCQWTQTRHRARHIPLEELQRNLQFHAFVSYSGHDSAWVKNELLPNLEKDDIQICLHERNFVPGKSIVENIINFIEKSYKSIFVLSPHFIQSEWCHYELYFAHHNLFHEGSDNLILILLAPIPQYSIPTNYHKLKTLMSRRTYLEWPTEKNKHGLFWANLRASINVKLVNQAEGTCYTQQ
TLR1/TLR2 (Mus musculus, UniProt Q9EPQ1+Q9QUN7), sequence (Q9QUN7 25-784): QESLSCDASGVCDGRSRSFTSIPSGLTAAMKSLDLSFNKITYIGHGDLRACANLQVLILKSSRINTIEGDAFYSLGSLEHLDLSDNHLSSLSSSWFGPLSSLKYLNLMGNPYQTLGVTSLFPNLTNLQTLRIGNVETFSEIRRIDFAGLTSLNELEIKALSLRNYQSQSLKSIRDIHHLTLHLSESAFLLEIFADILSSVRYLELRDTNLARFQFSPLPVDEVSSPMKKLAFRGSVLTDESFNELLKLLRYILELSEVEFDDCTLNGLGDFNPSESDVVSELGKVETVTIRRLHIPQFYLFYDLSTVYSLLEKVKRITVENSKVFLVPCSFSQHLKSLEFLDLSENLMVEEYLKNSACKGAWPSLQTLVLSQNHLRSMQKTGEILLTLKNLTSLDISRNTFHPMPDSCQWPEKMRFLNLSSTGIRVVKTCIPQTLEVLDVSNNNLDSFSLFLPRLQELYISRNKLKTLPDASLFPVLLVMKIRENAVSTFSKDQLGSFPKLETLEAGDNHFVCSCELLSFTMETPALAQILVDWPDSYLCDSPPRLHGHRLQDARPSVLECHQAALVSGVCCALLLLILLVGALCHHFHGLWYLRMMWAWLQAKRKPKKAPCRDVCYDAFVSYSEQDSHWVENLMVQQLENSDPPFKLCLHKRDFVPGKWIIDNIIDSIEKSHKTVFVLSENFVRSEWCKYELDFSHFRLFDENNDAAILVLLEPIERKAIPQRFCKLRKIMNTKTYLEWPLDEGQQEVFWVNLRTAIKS
TLR1/TLR2 (Homo sapiens, UniProt O60603+Q15399), sequence (Q15399 25-786): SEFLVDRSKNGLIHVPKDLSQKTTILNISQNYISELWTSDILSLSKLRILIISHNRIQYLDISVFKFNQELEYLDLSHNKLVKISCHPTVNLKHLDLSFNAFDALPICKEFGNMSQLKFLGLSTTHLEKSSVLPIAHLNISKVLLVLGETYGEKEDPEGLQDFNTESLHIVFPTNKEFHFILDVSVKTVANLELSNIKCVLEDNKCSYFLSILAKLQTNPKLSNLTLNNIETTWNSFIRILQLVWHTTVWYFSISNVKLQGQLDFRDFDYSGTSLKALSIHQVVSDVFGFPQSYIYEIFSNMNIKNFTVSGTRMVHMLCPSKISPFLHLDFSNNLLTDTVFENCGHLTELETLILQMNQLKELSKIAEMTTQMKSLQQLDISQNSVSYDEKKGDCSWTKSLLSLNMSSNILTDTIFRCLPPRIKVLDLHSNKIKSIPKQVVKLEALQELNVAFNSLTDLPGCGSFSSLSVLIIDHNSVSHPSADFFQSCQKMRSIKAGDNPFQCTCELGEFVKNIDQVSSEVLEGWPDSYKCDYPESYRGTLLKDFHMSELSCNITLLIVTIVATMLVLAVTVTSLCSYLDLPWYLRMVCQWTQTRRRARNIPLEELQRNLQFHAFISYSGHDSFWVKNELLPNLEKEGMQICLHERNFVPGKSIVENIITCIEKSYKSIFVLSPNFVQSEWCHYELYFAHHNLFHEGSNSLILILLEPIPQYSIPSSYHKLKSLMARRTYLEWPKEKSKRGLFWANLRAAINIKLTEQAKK
TLR1/TLR2 (Homo sapiens, UniProt O60603+Q15399), sequence (O60603 21-784): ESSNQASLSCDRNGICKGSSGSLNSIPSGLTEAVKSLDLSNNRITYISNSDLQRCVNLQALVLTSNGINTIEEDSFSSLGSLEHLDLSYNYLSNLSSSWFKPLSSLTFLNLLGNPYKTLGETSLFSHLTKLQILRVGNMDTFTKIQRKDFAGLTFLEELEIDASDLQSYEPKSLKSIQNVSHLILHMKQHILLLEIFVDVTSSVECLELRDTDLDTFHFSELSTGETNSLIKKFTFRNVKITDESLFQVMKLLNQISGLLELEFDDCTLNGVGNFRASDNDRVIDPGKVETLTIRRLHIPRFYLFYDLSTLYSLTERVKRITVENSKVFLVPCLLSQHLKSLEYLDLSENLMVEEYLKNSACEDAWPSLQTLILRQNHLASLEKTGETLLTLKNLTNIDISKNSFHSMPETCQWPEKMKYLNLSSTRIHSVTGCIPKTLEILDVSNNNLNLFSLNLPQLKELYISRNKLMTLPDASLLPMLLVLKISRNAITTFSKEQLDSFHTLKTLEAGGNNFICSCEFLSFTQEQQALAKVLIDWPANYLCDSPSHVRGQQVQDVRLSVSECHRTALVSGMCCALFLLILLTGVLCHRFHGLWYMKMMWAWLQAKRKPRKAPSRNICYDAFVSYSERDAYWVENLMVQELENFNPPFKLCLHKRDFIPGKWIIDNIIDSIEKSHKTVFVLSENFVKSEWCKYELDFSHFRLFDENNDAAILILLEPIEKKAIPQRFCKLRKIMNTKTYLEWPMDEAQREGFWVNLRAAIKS

Take `CN(CC(=O)OCCCCCCCCCCCCNC(=O)[C@@H]1CN(C(=O)c2ccc(C(=O)N3C[C@@H](C(=O)N[C@H]4C[C@@H]4c4ccccc4)[C@H](C(=O)N[C@H]4C[C@@H]4c4ccccc4)C3)cc2)C[C@H]1C(=O)N[C@H]1C[C@@H]1c1ccccc1)C(=O)OC(C)(C)C` [Compound 70, 12-((3S,4S)-1-(4-((3S,4S)-3,4-Bis(((1S,2R)-2-phenyl-cyclopropyl)carbamoyl)pyrrolidine-1-carbonyl)-benzoyl)-4-(((1S,2R)-2-phenylcyclopropyl)carbamoyl)-pyrrolidine-3-carboxamido)-dodecyl 2-((tert-butoxycarbonyl)(methyl)amino)acetate]: the values for the Emax on TLR1/TLR2 [1] and at TLR1/TLR2 [2] were 110% and 100%, respectively. The EC50 at TLR1/TLR2 [1] (Table 5) worked out at 17 nM; on TLR1/TLR2 [2] (Table 5), 1.7 nM.

With `CC(C)(C)OC(=O)NNC(=O)OCCCCCCCCCCCCNC(=O)[C@@H]1CN(C(=O)c2ccc(C(=O)N3C[C@@H](C(=O)N[C@H]4C[C@@H]4c4ccccc4)[C@H](C(=O)N[C@H]4C[C@@H]4c4ccccc4)C3)cc2)C[C@H]1C(=O)N[C@H]1C[C@@H]1c1ccccc1` [Compound 71, 1-(12-((3S,4S)-1-(4-((3S,4S)-3,4-Bis(((1S,2R)-2-phenylcyclopropyl)carbamoyl)pyrrolidine-1-carbonyl)-benzoyl)-4-(((1S,2R)-2-phenylcyclopropyl)carbamoyl)-pyrrolidine-3-carboxamido)-dodecyl) 2-tert-butyl hydrazine-1,2-dicarboxylate], the Emax at TLR1/TLR2 [1] stood at 220%; on TLR1/TLR2 [2] it was 100%. In addition, the results for the 50% effective concentration (EC50) at TLR1/TLR2 [1] (Table 5) and at TLR1/TLR2 [2] (Table 5) were 25 nM and 5 nM, respectively.

`CC(C)(C)OC(=O)NCC(=O)NCC(=O)OCCCCCCCCCCCCNC(=O)[C@@H]1CN(C(=O)c2ccc(C(=O)N3C[C@@H](C(=O)N[C@H]4C[C@@H]4c4ccccc4)[C@H](C(=O)N[C@H]4C[C@@H]4c4ccccc4)C3)cc2)C[C@H]1C(=O)N[C@H]1C[C@@H]1c1ccccc1` [Compound 72, 12-((3S,4S)-1-(4-((3S,4S)-3,4-Bis(((1S,2R)-2-phenyl-cyclopropyl)carbamoyl)pyrrolidine-1-carbonyl)benzoyl)-4-(((1S,2R)-2-phenylcyclopropyl)carbamoyl)pyrrolidine-3-carboxamido)-dodecyl 2-(2-((tert-butoxycarbonyl)amino)acetamido)acetate]: the Emax on TLR1/TLR2 [1] and at TLR1/TLR2 [2] was 110% throughout. Also, the EC50 on TLR1/TLR2 [1] (Table 5) came out at 2.5 nM; on TLR1/TLR2 [2] (Table 5) it was 0.52 nM.

For `CC(C)(C)OC(=O)Nc1ccc(C(=O)OCCCCCCCCCCCCNC(=O)[C@@H]2CN(C(=O)c3ccc(C(=O)N4C[C@@H](C(=O)N[C@H]5C[C@@H]5c5ccccc5)[C@H](C(=O)N[C@H]5C[C@@H]5c5ccccc5)C4)cc3)C[C@H]2C(=O)N[C@H]2C[C@@H]2c2ccccc2)cc1` [Compound 73, 12-((3S,4S)-1-(4-((3S,4S)-3,4-Bis(((1S,2R)-2-phenyl-cyclopropyl)carbamoyl)pyrrolidine-1-carbonyl)-benzoyl)-4-(((1S,2R)-2-phenylcyclopropyl)carbamoyl)-pyrrolidine-3-carboxamido)-dodecyl 4-((tert-butoxycarbonyl)amino)benzoate], the Emax stood at 540% on TLR1/TLR2 [1] and 90% on TLR1/TLR2 [2]. The values for the half-maximal effective concentration (EC50) on TLR1/TLR2 [1] (Table 6) and on TLR1/TLR2 [2] (Table 6) were 30 nM and 0.57 nM, respectively.

As to `Nc1ccc(C(=O)OCCCCCCCCCCCCNC(=O)[C@@H]2CN(C(=O)c3ccc(C(=O)N4C[C@@H](C(=O)N[C@H]5C[C@@H]5c5ccccc5)[C@H](C(=O)N[C@H]5C[C@@H]5c5ccccc5)C4)cc3)C[C@H]2C(=O)N[C@H]2C[C@@H]2c2ccccc2)cc1` [Compound 74, 12-((3S,4S)-1-(4-((3S,4S)-3,4-Bis(((1S,2R)-2-phenyl-cyclopropyl)carbamoyl)pyrrolidine-1-carbonyl)benzoyl)-4-(((1S,2R)-2-phenylcyclopropyl)carbamoyl)-pyrrolidine-3-carboxamido)-dodecyl 4-aminobenzoate], the Emax was found to be 300% on TLR1/TLR2 [1] and 100% at TLR1/TLR2 [2]. Moreover, the results for the EC50 on TLR1/TLR2 [1] (Table 6) and at TLR1/TLR2 [2] (Table 6) were 0.67 nM and 0.05 nM, respectively.

For the molecule `O=C(OCCCCCCCCCCCCNC(=O)[C@@H]1CN(C(=O)c2ccc(C(=O)N3C[C@@H](C(=O)N[C@H]4C[C@@H]4c4ccccc4)[C@H](C(=O)N[C@H]4C[C@@H]4c4ccccc4)C3)cc2)C[C@H]1C(=O)N[C@H]1C[C@@H]1c1ccccc1)c1ccc(O)cc1` [Compound 75, 12-((3S,4S)-1-(4-((3S,4S)-3,4-Bis(((1S,2R)-2-phenylcyclopropyl)carbamoyl)pyrrolidine-1-carbonyl)benzoyl)-4-(((1S,2R)-2-phenyl-cyclopropyl)carbamoyl)pyrrolidine-3-carboxamido)-dodecyl 4-hydroxybenzoate], the Emax on TLR1/TLR2 [1] was found to be 540%; on TLR1/TLR2 [2], 100%. Further, the EC50 is 50 nM at TLR1/TLR2 [1] (Table 6) and 1.7 nM at TLR1/TLR2 [2] (Table 6).

Turning to `CC(C)(C)Oc1ccc(C(=O)OCCCCCCCCCCCCNC(=O)[C@@H]2CN(C(=O)c3ccc(C(=O)N4C[C@@H](C(=O)N[C@H]5C[C@@H]5c5ccccc5)[C@H](C(=O)N[C@H]5C[C@@H]5c5ccccc5)C4)cc3)C[C@H]2C(=O)N[C@H]2C[C@@H]2c2ccccc2)cc1` [Compound 76, 12-((3S,4S)-1-(4-((3S,4S)-3,4-Bis(((1S,2R)-2-phenylcyclopropyl)carbamoyl)pyrrolidine-1-carbonyl)benzoyl)-4-(((1S,2R)-2-phenyl-cyclopropyl)carbamoyl)pyrrolidine-3-carboxamido)-dodecyl 4-(tert-butoxy)benzoate], the Emax at TLR1/TLR2 [1] was 150%; on TLR1/TLR2 [2] it was below 50%. Also, the EC50 on TLR1/TLR2 [1] (Table 6) came out at 540 nM; at TLR1/TLR2 [2] (Table 6), 27 nM.

As to `CC(C)(C)OC(=O)c1ccc(C(=O)OCCCCCCCCCCCCNC(=O)[C@@H]2CN(C(=O)c3ccc(C(=O)N4C[C@@H](C(=O)N[C@H]5C[C@@H]5c5ccccc5)[C@H](C(=O)N[C@H]5C[C@@H]5c5ccccc5)C4)cc3)C[C@H]2C(=O)N[C@H]2C[C@@H]2c2ccccc2)cc1` [Compound 77, 12-((3S,4S)-1-(4-((3S,4S)-3,4-Bis(((1S,2R)-2-phenylcyclopropyl)carbamoyl)pyrrolidine-1-carbonyl)benzoyl)-4-(((1S,2R)-2-phenyl-cyclopropyl)carbamoyl)pyrrolidine-3-carboxamido)-dodecyl tert-butyl terephthalate], the Emax at TLR1/TLR2 [1] was 190%; on TLR1/TLR2 [2], 90%. For the same molecule, the results for the EC50 at TLR1/TLR2 [1] (Table 6) and at TLR1/TLR2 [2] (Table 6) were 785 nM and 165 nM, respectively.

As for `O=C(O)c1ccc(C(=O)OCCCCCCCCCCCCNC(=O)[C@@H]2CN(C(=O)c3ccc(C(=O)N4C[C@@H](C(=O)N[C@H]5C[C@@H]5c5ccccc5)[C@H](C(=O)N[C@H]5C[C@@H]5c5ccccc5)C4)cc3)C[C@H]2C(=O)N[C@H]2C[C@@H]2c2ccccc2)cc1` [Compound 78, 4-(((12-((3S,4S)-1-(4-((3S,4S)-3,4-Bis(((1S,2R)-2-phenylcyclopropyl)carbamoyl)pyrrolidine-1-carbonyl)benzoyl)-4-(((1S,2R)-2-phenylcyclopropyl)-carbamoyl)pyrrolidine-3-carboxamido)-dodecyl)oxy)carbonyl)benzoic acid], the Emax came to 120% on TLR1/TLR2 [1] and 100% on TLR1/TLR2 [2]. Further, the EC50 on TLR1/TLR2 [1] (Table 6) turned out to be 2.1 nM; at TLR1/TLR2 [2] (Table 6), 0.69 nM.

Consider `CC(C)(C)OC(=O)c1ccc(C(=O)NCC(=O)OCCCCCCCCCCCCNC(=O)[C@@H]2CN(C(=O)c3ccc(C(=O)N4C[C@@H](C(=O)N[C@H]5C[C@@H]5c5ccccc5)[C@H](C(=O)N[C@H]5C[C@@H]5c5ccccc5)C4)cc3)C[C@H]2C(=O)N[C@H]2C[C@@H]2c2ccccc2)cc1` [Compound 79, tert-Butyl 4-((2-((12-((3S,4S)-1-(4-((3S,4S)-3,4-bis-(((1S,2R)-2-phenylcyclopropyl)carbamoyl)-pyrrolidine-1-carbonyl)benzoyl)-4-(((1S,2R)-2-phenylcyclopropyl)-carbamoyl)pyrrolidine-3-carboxamido)dodecyl)oxy)-2-oxoethyl)carbamoyl)benzoate], for which the values for the Emax at TLR1/TLR2 [1] and on TLR1/TLR2 [2] were 130% and 100%, respectively. The EC50 on TLR1/TLR2 [1] (Table 6) came out at 465 nM; at TLR1/TLR2 [2] (Table 6), 6.6 nM.

With `O=C(CNC(=O)c1ccc(C(=O)O)cc1)OCCCCCCCCCCCCNC(=O)[C@@H]1CN(C(=O)c2ccc(C(=O)N3C[C@@H](C(=O)N[C@H]4C[C@@H]4c4ccccc4)[C@H](C(=O)N[C@H]4C[C@@H]4c4ccccc4)C3)cc2)C[C@H]1C(=O)N[C@H]1C[C@@H]1c1ccccc1` [Compound 80, 4-((2-((12-((3S,4S)-1-(4-((3S,4S)-3,4-Bis(((1S,2R)-2-phenylcyclopropyl)carbamoyl)pyrrolidine-1-carbonyl)-benzoyl)-4-(((1S,2R)-2-phenylcyclopropyl)carbamoyl)-pyrrolidine-3-carboxamido)-dodecyl)oxy)-2-oxoethyl)carbamoyl)benzoic acid], the Emax on TLR1/TLR2 [1] was found to be 60%; at TLR1/TLR2 [2], 100%. Also, the EC50 on TLR1/TLR2 [1] (Table 6) was determined as 5 nM; at TLR1/TLR2 [2] (Table 6) it was 0.17 nM.

Take `CC(C)(C)OC(=O)/C=C/C(=O)NCC(=O)OCCCCCCCCCCCCNC(=O)[C@@H]1CN(C(=O)c2ccc(C(=O)N3C[C@@H](C(=O)N[C@H]4C[C@@H]4c4ccccc4)[C@H](C(=O)N[C@H]4C[C@@H]4c4ccccc4)C3)cc2)C[C@H]1C(=O)N[C@H]1C[C@@H]1c1ccccc1` [Compound 81, (E)-tert-Butyl 4-((2-((12-((3S,4S)-1-(4-((3S,4S)-3,4-bis(((1S,2R)-2-phenylcyclopropyl)carbamoyl)-pyrrolidine-1-carbonyl)benzoyl)-4-(((1S,2R)-2-phenylcyclopropyl)carbamoyl)pyrrolidine-3-carboxamido)dodecyl)oxy)-2-oxoethyl)amino)-4-oxobut-2-enoate]: the Emax on TLR1/TLR2 [1] was 110%; at TLR1/TLR2 [2], 90%. The figures for the EC50 at TLR1/TLR2 [1] (Table 6) and at TLR1/TLR2 [2] (Table 6) were 62 nM and 2 nM, respectively.

For the origin of these results see patent US20250367166A1, “NEXT GENERATION DIPROVOCIMS THAT ACTIVATE THE INNATE AND ADAPTIVE IMMUNE RESPONSE” (The Scripps Research Institute, priority 2022, published 2025).
